Source: patent US10617719B2, “Deep sea water extract and use thereof” (Taiwan DOW Biotech Co., Ltd., priority 2015, dated 2020)

Test system: Helicobacter pylori
Experiment: Inhibition of H. pylori growth on LB/sheep blood agar plates containing DSW extract
Type: cell-based, Helicobacter pylori (ten samples from different patients)
Details: same concentration of magnesium ions as the DSW extract (MgCl2 285 and 570 mg/L)
Text: The present invention validates that the active components of the deep sea water extract having ability of inhibiting H. pylori growth are not associated with high magnesium, calcium ions and high hardness. […] Also, the present invention uses mass spectrometry to show a relational graph between the intensity value of the 1,070 component of the DSW extract and inhibiting H. pylori growth rate. In one embodiment, prepare the LB agar having the DSW extract with different hardness, the DSW extract with different concentration of EDTA or different concentration of MgCl2, follow by filtration through the 0.22 μm filter membrane or sterilization in an autoclave. Mix the LB agar with sheep blood, and pour the mixture into each 9-cm culture plate. Let each plate cool until its solid to form agar plate. For the LB agar having different concentration of MgCl2, take 2.85 mg MgCl2, add other nutrients and water to make 10 mL agar plate, the agar plate contains 285 mg/L MgCl2. According to above-mentioned procedure, the agar plats having different concentration of MgCl2 are 285 mg/L and 570 mg/L. The present invention also prepares the LB agar having the DSW extract with 1,200 ppm to 6,000 ppm and the 2,400 ppm DSW extract with different concentration of EDTA. The present invention identifies the active components of the DSW extract having the ability of inhibiting H. pylori growth. […]

[Cl-].[Cl-].[Mg+2] [magnesium ions, MgCl2]
ability of inhibiting H. pylori growth: does not have the ability of inhibiting H. pylori growth
